target: T1, hSCN9A (Homo sapiens, UniProt Q15858); experiment: Whole-cell patch-clamp electrophysiology (conventional or PatchXpress), HEK cells expressing hSCN9A, estimated IC-50; type: cell-based; conditions: estimated IC-50, HEK cells expressing hSCN9A; class symbols or bounds; read-out: SCN9A EIC-50
T1 construct: expressed in transfected cells
Outline: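 Stably transfected HEK cells recorded by whole-cell voltage clamp (manual or PatchXpress) at 22–24 °C in pH 7.4 HEPES-buffered extracellular solution. Cells held at the empirically determined inactivation V1/2 after an 8 s prepulse, then stepped to 0 mV for 20 ms; % inhibition from current amplitude before vs after compound.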

T1 sequence (Q15858 whole entry): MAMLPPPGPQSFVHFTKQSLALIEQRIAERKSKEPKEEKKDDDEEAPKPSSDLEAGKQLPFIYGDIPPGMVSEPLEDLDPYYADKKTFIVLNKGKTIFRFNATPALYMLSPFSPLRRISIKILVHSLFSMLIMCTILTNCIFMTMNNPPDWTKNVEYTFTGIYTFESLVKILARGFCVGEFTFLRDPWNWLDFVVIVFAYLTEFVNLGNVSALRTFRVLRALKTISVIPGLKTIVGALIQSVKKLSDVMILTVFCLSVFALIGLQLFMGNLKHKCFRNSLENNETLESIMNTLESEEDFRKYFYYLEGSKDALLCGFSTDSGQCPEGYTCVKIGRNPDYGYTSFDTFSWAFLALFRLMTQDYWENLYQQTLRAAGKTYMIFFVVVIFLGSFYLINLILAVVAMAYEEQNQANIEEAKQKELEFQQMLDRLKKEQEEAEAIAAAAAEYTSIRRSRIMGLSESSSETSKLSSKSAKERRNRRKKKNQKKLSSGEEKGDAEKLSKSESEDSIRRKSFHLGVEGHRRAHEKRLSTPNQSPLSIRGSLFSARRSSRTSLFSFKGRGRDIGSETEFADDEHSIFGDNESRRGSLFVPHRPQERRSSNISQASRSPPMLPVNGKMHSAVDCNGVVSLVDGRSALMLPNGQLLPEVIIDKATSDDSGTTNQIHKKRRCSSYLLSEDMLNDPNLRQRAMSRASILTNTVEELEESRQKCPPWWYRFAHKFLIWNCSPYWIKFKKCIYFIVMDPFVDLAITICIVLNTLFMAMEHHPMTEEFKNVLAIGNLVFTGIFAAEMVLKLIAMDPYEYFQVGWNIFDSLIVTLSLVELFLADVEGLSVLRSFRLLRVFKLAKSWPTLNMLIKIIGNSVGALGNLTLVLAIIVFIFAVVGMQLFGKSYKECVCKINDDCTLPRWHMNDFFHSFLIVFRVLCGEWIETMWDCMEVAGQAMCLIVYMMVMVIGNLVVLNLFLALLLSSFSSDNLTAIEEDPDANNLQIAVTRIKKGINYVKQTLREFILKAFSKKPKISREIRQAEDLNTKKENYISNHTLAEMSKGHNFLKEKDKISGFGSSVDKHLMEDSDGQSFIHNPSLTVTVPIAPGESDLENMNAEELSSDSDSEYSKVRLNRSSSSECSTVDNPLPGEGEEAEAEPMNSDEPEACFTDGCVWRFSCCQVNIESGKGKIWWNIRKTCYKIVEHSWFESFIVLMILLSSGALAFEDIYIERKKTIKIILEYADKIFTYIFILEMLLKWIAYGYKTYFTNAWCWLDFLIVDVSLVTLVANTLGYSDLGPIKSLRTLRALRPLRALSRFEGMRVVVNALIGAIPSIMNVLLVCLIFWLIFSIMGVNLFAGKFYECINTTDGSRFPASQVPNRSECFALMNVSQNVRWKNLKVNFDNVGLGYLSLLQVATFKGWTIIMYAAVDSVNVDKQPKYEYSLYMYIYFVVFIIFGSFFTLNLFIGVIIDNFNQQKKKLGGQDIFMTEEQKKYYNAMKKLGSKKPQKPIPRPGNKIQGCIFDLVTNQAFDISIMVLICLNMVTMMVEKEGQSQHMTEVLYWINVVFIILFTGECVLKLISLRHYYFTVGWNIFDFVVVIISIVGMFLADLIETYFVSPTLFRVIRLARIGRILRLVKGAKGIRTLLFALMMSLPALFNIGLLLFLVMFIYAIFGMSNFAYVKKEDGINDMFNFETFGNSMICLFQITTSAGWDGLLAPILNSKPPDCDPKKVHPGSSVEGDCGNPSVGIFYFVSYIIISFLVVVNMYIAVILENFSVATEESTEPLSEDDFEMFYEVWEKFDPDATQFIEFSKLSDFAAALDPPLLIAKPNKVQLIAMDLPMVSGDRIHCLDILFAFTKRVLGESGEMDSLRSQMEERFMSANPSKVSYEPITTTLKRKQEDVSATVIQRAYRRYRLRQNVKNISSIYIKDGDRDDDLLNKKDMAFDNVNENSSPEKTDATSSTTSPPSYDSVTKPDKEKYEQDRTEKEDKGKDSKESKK

Structure (SMILES) | IC50 [nM]
O=S(=O)(Nc1nccs1)c1ccc(Nc2ccn(Cc3ccc(F)cc3)n2)cc1F [Compound 217, 2-fluoro-4-(1-(4-fluorobenzyl)-1H-pyrazol-3-ylamino)-N-(thiazol-2-yl)benzenesulfonamide] | < 2000
Cn1nc(Cc2cccc(Cl)c2)cc1Nc1ccc(S(=O)(=O)Nc2nccs2)cc1 [Compound 218, 4-(3-(3-chlorobenzyl)-1-methyl-1H-pyrazol-5-ylamino)-N-(thiazol-2-yl)benzenesulfonamide] | < 2000
Cn1nc(Cc2cccc(Cl)c2)cc1Nc1ccc(S(=O)(=O)Nc2nccs2)cc1F [Compound 219, 4-(3-(3-chlorobenzyl)-1-methyl-1H-pyrazol-5-ylamino)-3-fluoro-N-(thiazol-2-yl)benzenesulfonamide] | < 2000
NC(=O)c1cn(Cc2ccc(Cl)cc2)nc1Nc1ccc(S(=O)(=O)Nc2nccs2)c(F)c1 [Compound 221, 1-(4-chlorobenzyl)-3-(3-fluoro-4-(N-thiazol-2-ylsulfamoyl)phenylamino)-1H-pyrazole-4-carboxamide] | 2000 to 10000
COc1ccc(Cn2ccc(Nc3ccc(S(=O)(=O)Nc4nccs4)c(F)c3)n2)cc1 [Compound 224, 2-fluoro-4-(1-(4-methoxybenzyl)-1H-pyrazol-3-ylamino)-N-(thiazol-2-yl)benzenesulfonamide] | < 2000
Cc1nn(Cc2ccc(Cl)cc2)c(C)c1Nc1ccc(S(=O)(=O)Nc2nccs2)c(F)c1 [Compound 225, 4-(1-(4-chlorobenzyl)-3,5-dimethyl-1H-pyrazol-4-ylamino)-2-fluoro-N-(thiazol-2-yl)benzenesulfonamide] | 2000 to 10000
O=S(=O)(Nc1nccs1)c1ccc(Nc2cnn(Cc3ccc(Cl)c(C(F)(F)F)c3)c2)cc1F [Compound 229, 4-(1-(4-chloro-3-(trifluoromethyl)benzyl)-1H-pyrazol-4-ylamino)-2-fluoro-N-(thiazol-2-yl)benzenesulfonamide] | < 2000
O=S(=O)(Nc1nccs1)c1ccc(Nc2cnn(Cc3ccc(Cl)cc3)c2)cn1 [Compound 231, 5-(1-(4-chlorobenzyl)-1H-pyrazol-4-ylamino)-N-(thiazol-2-yl)pyridine-2-sulfonamide] | 2000 to 10000
O=S(=O)(Nc1nncs1)c1ccc(Nc2ccn(Cc3ccc(Cl)cc3)n2)cc1F [Compound 232, 4-(1-(4-chlorobenzyl)-1H-pyrazol-3-ylamino)-2-fluoro-N-(1,3,4-thiadiazol-2-yl)benzenesulfonamide] | < 2000
Cc1cc(Nc2ccc(S(=O)(=O)Nc3nnc(C)o3)c(F)c2)n(-c2ccccc2)n1 [Compound 237, 2-fluoro-N-(5-methyl-1,3,4-oxadiazol-2-yl)-4-(3-methyl-1-phenyl-1H-pyrazol-5-ylamino)benzenesulfonamide] | 2000 to 10000
Cc1cc(Nc2ccc(S(=O)(=O)Nc3nncs3)c(F)c2)n(-c2ccccc2)n1 [Compound 238, 2-fluoro-4-(3-methyl-1-phenyl-1H-pyrazol-5-ylamino)-N-(1,3,4-thiadiazol-2-yl)benzenesulfonamide] | 2000 to 10000
Cc1cc(Nc2ccc(S(=O)(=O)Nc3ncns3)c(F)c2)n(-c2ccccc2)n1 [Compound 240, 2-fluoro-4-(3-methyl-1-phenyl-1H-pyrazol-5-ylamino)-N-(1,2,4-thiadiazol-5-yl)benzenesulfonamide] | 2000 to 10000
O=S(=O)(Nc1nnc(C(F)(F)F)s1)c1ccc(Nc2ccn(Cc3ccc(Cl)cc3)n2)cc1F [Compound 243, 4-(1-(4-chlorobenzyl)-1H-pyrazol-3-ylamino)-2-fluoro-N-(5-(trifluoromethyl)-1,3,4-thiadiazol-2-yl)benzenesulfonamide] | 2000 to 10000
CCc1nnc(NS(=O)(=O)c2ccc(Nc3cc(C)nn3-c3ccccc3)cc2F)s1 [Compound 246, N-(5-ethyl-1,3,4-thiadiazol-2-yl)-2-fluoro-4-(3-methyl-1-phenyl-1H-pyrazol-5-ylamino)benzenesulfonamide] | > 1000
Cc1cc(Nc2ccc(S(=O)(=O)Nc3nnc(C(F)F)s3)c(F)c2)n(-c2ccccc2)n1 [Compound 248, N-(5-(difluoromethyl)-1,3,4-thiadiazol-2-yl)-2-fluoro-4-(3-methyl-1-phenyl-1H-pyrazol-5-ylamino)benzenesulfonamide] | 2000 to 10000
Cc1cc(Nc2ccc(S(=O)(=O)Nc3nnc(C4CC4)s3)c(F)c2)n(-c2ccccc2)n1 [Compound 250, N-(5-cyclopropyl-1,3,4-thiadiazol-2-yl)-2-fluoro-4-(3-methyl-1-phenyl-1H-pyrazol-5-ylamino)benzenesulfonamide] | > 1000
Cc1cc(Nc2ccc(S(=O)(=O)Nc3nnc(C(C)C)s3)c(F)c2)n(-c2ccccc2)n1 [Compound 252, 2-fluoro-N-(5-isopropyl-1,3,4-thiadiazol-2-yl)-4-(3-methyl-1-phenyl-1H-pyrazol-5-ylamino)benzenesulfonamide] | > 1000
O=S(=O)(Nc1nnc(C2CC2)s1)c1ccc(Nc2ccn(Cc3ccc(Cl)cc3)n2)cc1F [Compound 253, 4-(1-(4-chlorobenzyl)-1H-pyrazol-3-ylamino)-N-(5-cyclopropyl-1,3,4-thiadiazol-2-yl)-2-fluorobenzenesulfonamide] | > 1000
COCc1nnc(NS(=O)(=O)c2ccc(Nc3ccn(Cc4ccc(Cl)cc4)n3)cc2F)s1 [Compound 254, 4-(1-(4-chlorobenzyl)-1H-pyrazol-3-ylamino)-2-fluoro-N-(5-(methoxymethyl)-1,3,4-thiadiazol-2-yl)benzenesulfonamide] | > 1000
O=S(=O)(Nc1nc(C(F)(F)F)cs1)c1ccc(Nc2nc(Cc3ccc(Cl)cc3)cs2)cc1 [Compound 257, 4-(4-(4-chlorobenzyl)thiazol-2-ylamino)-N-(4-(trifluoromethyl)thiazol-2-yl)benzenesulfonamide] | 2000 to 10000
O=S(=O)(Nc1nc(C(F)(F)F)co1)c1ccc(Nc2nc(Cc3ccc(Cl)cc3)cs2)cc1 [Compound 258, 4-(4-(4-chlorobenzyl)thiazol-2-ylamino)-N-(4-(trifluoromethyl)oxazol-2-yl)benzenesulfonamide] | > 1000

Next, values leading:

IC50 [nM] | Structure (SMILES)
< 2000 | COc1ccccc1-n1nc(C)cc1Nc1ccc(S(=O)(=O)Nc2nccs2)cc1F [Compound 215, 3-fluoro-4-(1-(2-methoxyphenyl)-3-methyl-1H-pyrazol-5-ylamino)-N-(thiazol-2-yl)benzenesulfonamide]
< 2000 | COc1cccc(-n2nc(C)cc2Nc2ccc(S(=O)(=O)Nc3nccs3)c(F)c2)c1 [Compound 220, 2-fluoro-4-(1-(3-methoxyphenyl)-3-methyl-1H-pyrazol-5-ylamino)-N-(thiazol-2-yl)benzenesulfonamide]
< 2000 | COc1ccccc1-c1cc(Nc2ccc(S(=O)(=O)Nc3nccs3)c(F)c2)n(C)n1 [Compound 223, 2-fluoro-4-(3-(2-methoxyphenyl)-1-methyl-1H-pyrazol-5-ylamino)-N-(thiazol-2-yl)benzenesulfonamide]
< 2000 | O=S(=O)(Nc1nccs1)c1ccc(Nc2ccn(Cc3ccc(F)cc3)n2)c(F)c1 [Compound 226, 3-fluoro-4-(1-(4-fluorobenzyl)-1H-pyrazol-3-ylamino)-N-(thiazol-2-yl)benzenesulfonamide]
< 2000 | COc1ccc(OC(F)(F)F)cc1Cn1cc(Nc2ccc(S(=O)(=O)Nc3nccs3)c(F)c2)cn1 [Compound 230, 2-fluoro-4-(1-(2-methoxy-5-(trifluoromethoxy)benzyl)-1H-pyrazol-4-ylamino)-N-(thiazol-2-yl)benzenesulfonamide]
2000 to 10000 | Cc1cc(Nc2ccc(S(=O)(=O)Nc3nccs3)nc2)n(-c2ccccc2)n1 [Compound 234, 5-(3-methyl-1-phenyl-1H-pyrazol-5-ylamino)-N-(thiazol-2-yl)pyridine-2-sulfonamide]
2000 to 10000 | Cc1cc(Nc2ccc(S(=O)(=O)Nc3nc(C)ns3)c(F)c2)n(-c2ccccc2)n1 [Compound 236, 2-fluoro-N-(3-methyl-1,2,4-thiadiazol-5-yl)-4-(3-methyl-1-phenyl-1H-pyrazol-5-ylamino)benzenesulfonamide]
2000 to 10000 | Cc1cc(Nc2ccc(S(=O)(=O)Nc3ncc(C)s3)c(F)c2)n(-c2ccccc2)n1 [Compound 239, 2-fluoro-4-(3-methyl-1-phenyl-1H-pyrazol-5-ylamino)-N-(5-methylthiazol-2-yl)benzenesulfonamide]
2000 to 10000 | Cc1cc(Nc2ccc(S(=O)(=O)Nc3nnc(-c4ccccc4)s3)c(F)c2)n(-c2ccccc2)n1 [Compound 241, 2-fluoro-4-(3-methyl-1-phenyl-1H-pyrazol-5-ylamino)-N-(5-phenyl-1,3,4-thiadiazol-2-yl)benzenesulfonamide]
> 1000 | Cc1cc(Nc2ccc(S(=O)(=O)Nc3nnc(C)s3)c(F)c2)n(-c2ccccc2)n1 [Compound 247, 2-fluoro-N-(5-methyl-1,3,4-thiadiazol-2-yl)-4-(3-methyl-1-phenyl-1H-pyrazol-5-ylamino)benzenesulfonamide]
> 1000 | COCc1nnc(NS(=O)(=O)c2ccc(Nc3cc(C)nn3-c3ccccc3)cc2F)s1 [Compound 249, 2-fluoro-N-(5-(methoxymethyl)-1,3,4-thiadiazol-2-yl)-4-(3-methyl-1-phenyl-1H-pyrazol-5-ylamino)benzenesulfonamide]
> 1000 | Cc1nnc(NS(=O)(=O)c2ccc(Nc3ccn(Cc4ccc(Cl)cc4)n3)cc2F)s1 [Compound 251, 4-(1-(4-chlorobenzyl)-1H-pyrazol-3-ylamino)-2-fluoro-N-(5-methyl-1,3,4-thiadiazol-2-yl)benzenesulfonamide]
> 1000 | CCc1nnc(NS(=O)(=O)c2ccc(Nc3ccn(Cc4ccc(Cl)cc4)n3)cc2F)s1 [Compound 255, 4-(1-(4-chlorobenzyl)-1H-pyrazol-3-ylamino)-N-(5-ethyl-1,3,4-thiadiazol-2-yl)-2-fluorobenzenesulfonamide]
> 1000 | CC(C)c1nnc(NS(=O)(=O)c2ccc(Nc3ccn(Cc4ccc(Cl)cc4)n3)cc2F)s1 [Compound 256, 4-(1-(4-chlorobenzyl)-1H-pyrazol-3-ylamino)-2-fluoro-N-(5-isopropyl-1,3,4-thiadiazol-2-yl)benzenesulfonamide]
